Experimental data taken from ChEMBL document CHEMBL3351767, “The discovery of Polo-like kinase 4 inhibitors: design and optimization of spiro[cyclopropane-1,3'[3H]indol]-2'(1'H).ones as orally bioavailable antitumor agents” (J Med Chem, 2015).
≈ marks a conversion by molar mass, not a printed value. Blank lines part the entries; values can stand above or below the compound they belong to.

How the values were obtained:
[1] = Protein binding in plasma (unknown origin); format: ADME, cell-free; conditions: read-out: PPB (converted)
MCF7 = test: Cytotoxicity against human MCF7 cells after 5 days by SRB assay; format: functional; conditions: MCF7, 120 h
[2] = molecular target: Vascular endothelial growth factor receptor 2 (Homo sapiens, UniProt P35968); test: Inhibition of KDR (unknown origin) by FRET-based homogeneous assay
Sequence of Vascular endothelial growth factor receptor 2 (P35968 whole entry): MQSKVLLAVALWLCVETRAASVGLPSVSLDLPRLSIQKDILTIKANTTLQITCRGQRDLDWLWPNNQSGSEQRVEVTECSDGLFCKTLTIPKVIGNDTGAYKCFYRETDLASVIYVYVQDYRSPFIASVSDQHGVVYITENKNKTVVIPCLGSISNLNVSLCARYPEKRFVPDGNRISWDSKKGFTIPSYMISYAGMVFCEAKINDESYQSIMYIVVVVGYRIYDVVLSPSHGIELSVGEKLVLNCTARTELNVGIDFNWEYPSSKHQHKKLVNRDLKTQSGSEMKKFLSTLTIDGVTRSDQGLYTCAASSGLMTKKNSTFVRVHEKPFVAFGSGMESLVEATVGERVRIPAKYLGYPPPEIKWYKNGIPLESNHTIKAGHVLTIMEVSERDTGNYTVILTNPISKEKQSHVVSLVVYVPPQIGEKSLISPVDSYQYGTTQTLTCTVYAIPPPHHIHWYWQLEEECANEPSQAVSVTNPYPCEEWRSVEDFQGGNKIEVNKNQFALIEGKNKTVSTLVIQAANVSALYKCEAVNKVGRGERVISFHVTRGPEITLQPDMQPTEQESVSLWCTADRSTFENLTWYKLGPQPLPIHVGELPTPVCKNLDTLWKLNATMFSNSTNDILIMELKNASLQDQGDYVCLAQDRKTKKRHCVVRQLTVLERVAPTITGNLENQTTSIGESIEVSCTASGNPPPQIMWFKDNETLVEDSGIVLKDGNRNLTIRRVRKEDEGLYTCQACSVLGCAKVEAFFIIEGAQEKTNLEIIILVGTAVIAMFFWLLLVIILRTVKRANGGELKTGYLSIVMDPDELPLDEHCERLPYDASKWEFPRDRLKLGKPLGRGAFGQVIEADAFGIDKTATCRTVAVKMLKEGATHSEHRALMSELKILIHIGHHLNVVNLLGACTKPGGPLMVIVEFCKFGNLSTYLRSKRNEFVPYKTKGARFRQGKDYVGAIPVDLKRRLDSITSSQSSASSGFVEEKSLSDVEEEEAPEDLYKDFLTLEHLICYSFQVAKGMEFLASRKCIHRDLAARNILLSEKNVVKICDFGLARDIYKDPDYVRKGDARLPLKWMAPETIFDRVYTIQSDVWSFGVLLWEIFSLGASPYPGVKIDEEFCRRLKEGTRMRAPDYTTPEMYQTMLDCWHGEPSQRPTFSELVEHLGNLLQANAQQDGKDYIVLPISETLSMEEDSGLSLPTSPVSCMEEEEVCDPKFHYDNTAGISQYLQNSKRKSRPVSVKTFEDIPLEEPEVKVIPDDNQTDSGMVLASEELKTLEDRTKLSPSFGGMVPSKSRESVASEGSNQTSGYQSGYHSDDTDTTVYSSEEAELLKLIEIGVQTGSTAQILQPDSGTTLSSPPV

MDA-MB-468 = test: Cytotoxicity against human MDA-MB-468 cells after 5 days by SRB assay; format: functional; conditions: MDA-MB-468, 120 h
[3] = molecular target: T1, Receptor-type tyrosine-protein kinase FLT3 (Homo sapiens, UniProt P36888); test: Inhibition of FLT3 (unknown origin) by FRET-based homogeneous assay
T1 sequence (P36888 whole entry): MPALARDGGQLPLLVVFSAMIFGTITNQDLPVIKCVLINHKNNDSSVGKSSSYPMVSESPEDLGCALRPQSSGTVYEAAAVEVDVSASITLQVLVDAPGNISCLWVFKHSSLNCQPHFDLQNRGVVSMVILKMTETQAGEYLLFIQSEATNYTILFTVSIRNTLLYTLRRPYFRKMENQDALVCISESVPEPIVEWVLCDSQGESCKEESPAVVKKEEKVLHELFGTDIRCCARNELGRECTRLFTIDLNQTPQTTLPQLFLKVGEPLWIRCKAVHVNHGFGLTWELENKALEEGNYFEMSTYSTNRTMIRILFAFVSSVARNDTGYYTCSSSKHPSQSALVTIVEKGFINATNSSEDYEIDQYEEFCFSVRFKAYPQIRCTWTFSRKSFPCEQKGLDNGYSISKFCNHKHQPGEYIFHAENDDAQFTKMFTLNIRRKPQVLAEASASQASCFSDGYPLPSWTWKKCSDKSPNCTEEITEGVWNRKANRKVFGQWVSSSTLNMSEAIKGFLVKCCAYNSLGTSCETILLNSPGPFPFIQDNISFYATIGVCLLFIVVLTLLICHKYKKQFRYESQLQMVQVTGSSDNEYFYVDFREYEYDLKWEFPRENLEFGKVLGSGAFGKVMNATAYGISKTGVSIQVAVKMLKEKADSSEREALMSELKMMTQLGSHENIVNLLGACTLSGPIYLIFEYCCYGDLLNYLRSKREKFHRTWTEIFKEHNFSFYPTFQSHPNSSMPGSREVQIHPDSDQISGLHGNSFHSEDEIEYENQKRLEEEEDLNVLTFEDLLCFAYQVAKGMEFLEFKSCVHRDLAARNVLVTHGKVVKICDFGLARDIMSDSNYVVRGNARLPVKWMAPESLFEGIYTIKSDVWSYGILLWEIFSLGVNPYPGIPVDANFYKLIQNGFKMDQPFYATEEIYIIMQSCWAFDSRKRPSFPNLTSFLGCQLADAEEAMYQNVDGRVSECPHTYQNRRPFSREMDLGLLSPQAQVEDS

[4] = AUC in SCID mouse at 50 mg/kg, ip after 8 hrs by LCMS/MS method; format: ADME, organism-based; set-up: time < 8 hr, dose 50 mg/kg, route intraperitoneal; conditions: plasma
Cytochrome P450 2C9 = Cytochrome P450 2C9 (Homo sapiens, UniProt P11712); test: Inhibition of CYP2C9 (unknown origin) using MFC substrate after 45 mins by fluorescence assay; format: ADME
Sequence of Cytochrome P450 2C9 (P11712 whole entry): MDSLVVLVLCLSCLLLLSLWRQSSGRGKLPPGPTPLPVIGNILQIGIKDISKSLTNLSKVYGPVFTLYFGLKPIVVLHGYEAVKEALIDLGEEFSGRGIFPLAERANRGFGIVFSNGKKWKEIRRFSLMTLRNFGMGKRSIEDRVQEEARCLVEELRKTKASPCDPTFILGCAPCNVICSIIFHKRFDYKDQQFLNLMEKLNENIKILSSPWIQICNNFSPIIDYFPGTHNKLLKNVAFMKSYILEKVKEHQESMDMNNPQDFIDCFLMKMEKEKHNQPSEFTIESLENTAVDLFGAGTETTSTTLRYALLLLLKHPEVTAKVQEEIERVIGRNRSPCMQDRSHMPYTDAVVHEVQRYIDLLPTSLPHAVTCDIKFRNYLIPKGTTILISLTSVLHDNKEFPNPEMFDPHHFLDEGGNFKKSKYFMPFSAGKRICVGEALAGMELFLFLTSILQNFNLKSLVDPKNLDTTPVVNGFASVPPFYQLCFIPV

[5] = Half life in human liver microsomes at 1 uM in presence of NADPH by LC-MS method; format: ADME
Cytochrome P450 1A2 = molecular target: T2, Cytochrome P450 1A2 (Homo sapiens, UniProt P05177); test: Inhibition of CYP1A2 (unknown origin) using CEC substrate after 15 mins by fluorescence assay; format: ADME
T2 sequence (P05177 whole entry): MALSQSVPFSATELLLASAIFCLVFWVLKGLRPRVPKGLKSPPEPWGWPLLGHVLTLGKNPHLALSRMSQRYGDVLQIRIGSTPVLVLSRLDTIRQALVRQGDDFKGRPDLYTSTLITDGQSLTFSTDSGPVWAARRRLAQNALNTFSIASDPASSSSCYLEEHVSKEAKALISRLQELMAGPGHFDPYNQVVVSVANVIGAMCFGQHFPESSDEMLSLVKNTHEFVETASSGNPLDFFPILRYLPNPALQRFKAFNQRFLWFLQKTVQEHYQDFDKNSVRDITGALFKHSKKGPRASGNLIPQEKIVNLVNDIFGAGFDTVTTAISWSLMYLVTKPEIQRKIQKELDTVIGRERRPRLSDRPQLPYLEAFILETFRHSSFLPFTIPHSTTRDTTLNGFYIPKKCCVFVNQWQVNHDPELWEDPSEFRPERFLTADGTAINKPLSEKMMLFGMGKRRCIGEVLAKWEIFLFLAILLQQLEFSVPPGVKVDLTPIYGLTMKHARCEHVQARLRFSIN

[6] = Cmax in SCID mouse at 50 mg/kg, ip after 8 hrs by LCMS/MS method; format: ADME, organism-based; set-up: dose 50 mg/kg, route intraperitoneal; conditions: in vivo
Cytochrome P450 2C19 = Cytochrome P450 2C19 (Homo sapiens, UniProt P33261); test: Inhibition of CYP2C19 (unknown origin) using MFC substrate after 30 mins by fluorescence assay; format: ADME
Sequence of Cytochrome P450 2C19 (P33261 whole entry): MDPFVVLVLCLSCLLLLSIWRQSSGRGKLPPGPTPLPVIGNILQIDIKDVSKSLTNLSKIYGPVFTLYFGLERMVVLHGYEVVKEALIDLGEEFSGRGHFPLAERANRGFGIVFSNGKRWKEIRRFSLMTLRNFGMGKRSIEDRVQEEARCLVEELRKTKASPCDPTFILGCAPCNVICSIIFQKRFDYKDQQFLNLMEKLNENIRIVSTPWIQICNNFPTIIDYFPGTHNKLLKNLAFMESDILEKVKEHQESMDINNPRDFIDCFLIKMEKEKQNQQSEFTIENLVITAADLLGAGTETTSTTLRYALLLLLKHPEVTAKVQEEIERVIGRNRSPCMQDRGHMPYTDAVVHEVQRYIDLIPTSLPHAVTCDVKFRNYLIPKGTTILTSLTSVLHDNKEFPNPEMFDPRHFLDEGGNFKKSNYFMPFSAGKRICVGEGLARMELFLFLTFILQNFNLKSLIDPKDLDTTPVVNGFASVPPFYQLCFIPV

Cytochrome P450 3A4 = Cytochrome P450 3A4 (Homo sapiens, UniProt P08684); test: Inhibition of CYP3A4 (unknown origin) using BFC substrate after 30 mins by fluorescence assay; format: ADME
Sequence of Cytochrome P450 3A4 (P08684 whole entry): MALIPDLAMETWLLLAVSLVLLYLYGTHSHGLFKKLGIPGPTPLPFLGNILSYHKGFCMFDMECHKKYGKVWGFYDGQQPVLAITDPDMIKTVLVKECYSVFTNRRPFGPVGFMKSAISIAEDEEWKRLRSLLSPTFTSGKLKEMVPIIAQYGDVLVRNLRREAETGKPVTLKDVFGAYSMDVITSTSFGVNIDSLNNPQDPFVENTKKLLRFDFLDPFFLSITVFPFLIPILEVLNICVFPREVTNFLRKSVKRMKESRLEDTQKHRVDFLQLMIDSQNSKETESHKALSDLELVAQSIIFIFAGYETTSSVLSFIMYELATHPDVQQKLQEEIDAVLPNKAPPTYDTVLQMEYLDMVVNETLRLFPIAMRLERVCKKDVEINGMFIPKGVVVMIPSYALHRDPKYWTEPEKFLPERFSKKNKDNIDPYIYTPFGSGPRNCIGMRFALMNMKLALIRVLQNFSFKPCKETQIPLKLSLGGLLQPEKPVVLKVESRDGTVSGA

[7] = Half life in mouse liver microsomes at 1 uM in presence of NADPH by LC-MS method; format: ADME
Cytochrome P450 2D6 = Cytochrome P450 2D6 (Homo sapiens, UniProt P10635); test: Inhibition of CYP2D6 (unknown origin) using AMMC substrate after 45 mins by fluorescence assay; format: ADME
Sequence of Cytochrome P450 2D6 (P10635 whole entry): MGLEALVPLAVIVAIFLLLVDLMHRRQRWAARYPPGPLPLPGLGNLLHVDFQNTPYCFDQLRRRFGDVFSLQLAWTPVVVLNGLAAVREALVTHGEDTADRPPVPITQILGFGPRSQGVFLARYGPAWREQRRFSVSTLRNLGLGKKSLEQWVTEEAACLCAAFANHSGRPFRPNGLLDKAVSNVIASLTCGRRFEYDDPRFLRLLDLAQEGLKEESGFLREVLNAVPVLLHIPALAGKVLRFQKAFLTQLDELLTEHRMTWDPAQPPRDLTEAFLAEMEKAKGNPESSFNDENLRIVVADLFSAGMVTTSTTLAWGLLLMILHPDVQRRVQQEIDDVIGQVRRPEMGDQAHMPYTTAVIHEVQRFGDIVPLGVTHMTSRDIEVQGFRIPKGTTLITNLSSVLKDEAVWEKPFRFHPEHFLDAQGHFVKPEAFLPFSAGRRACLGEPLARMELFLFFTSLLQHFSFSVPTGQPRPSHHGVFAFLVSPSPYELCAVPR

[8] = Aqueous solubility at pH 7.4; format: physicochemical; conditions: buffer
[9] = Cytotoxicity against human SKBR3 cells after 5 days by SRB assay; format: functional; conditions: SK-BR-3, 120 h
MDA-MB-231 = test: Cytotoxicity against human MDA-MB-231 cells after 5 days by SRB assay; format: functional; conditions: MDA-MB-231, 120 h
[10] = Cmax in SCID mouse at 25 mg/kg, po by LCMS/MS method; format: ADME, organism-based; set-up: dose 25 mg/kg, route oral; conditions: in vivo
[11] = AUC in SCID mouse at 25 mg/kg, po by LCMS/MS method; format: ADME, organism-based; set-up: dose 25 mg/kg, route oral; conditions: plasma

Structure (SMILES): Cc1ccc(/C=C/c2n[nH]c3cc([C@@H]4C[C@@]45C(=O)Nc4ccccc45)ccc23)cn1
GI50 [9]: 7.6 µM
GI50 (MCF7): 280 nM
GI50 (MDA-MB-468): 140 nM
GI50 (MDA-MB-231): 3.8 µM

Structure (SMILES): O=C1Nc2ccccc2[C@]12C[C@H]2c1ccc2c(/C=C/c3cccnc3)n[nH]c2c1 (relative stereo)
GI50 [9]: 14.7 µM
GI50 (MCF7): 3600 nM
GI50 (MDA-MB-468): 9 nM
Cmax [10]: 37 ng/mL
IC50 (Cytochrome P450 2C9): 0.32 µM
IC50 (Cytochrome P450 1A2): 0.14 µM
GI50 (MDA-MB-231): 50 µM
AUC [11]: 93 ng·h/mL
IC50 (Cytochrome P450 2C19): 0.11 µM
IC50 (Cytochrome P450 3A4): > 1 µM
IC50 (Cytochrome P450 2D6): > 1 µM

Structure (SMILES): O=C1Nc2ccccc2[C@]12C[C@H]2c1ccc2c(/C=C/c3ccc(CN4CCCCC4)nc3)n[nH]c2c1 (relative stereo)
GI50 [9]: 3.4 µM
GI50 (MCF7): 0.01 nM
GI50 (MDA-MB-468): 0.4 nM
GI50 (MDA-MB-231): 35.8 µM

Structure (SMILES): CN(C)Cc1ccc(/C=C/c2n[nH]c3cc([C@@H]4C[C@@]45C(=O)Nc4ccc(Cl)cc45)ccc23)cc1 (relative stereo)
GI50 [9]: 3.5 µM
GI50 (MCF7): 0.01 nM
GI50 (MDA-MB-468): 0.06 nM
GI50 (MDA-MB-231): 0.93 µM

Second part, led by results:

fraction unbound [1]: < 0.001
IC50 [2]: 2.5 µM
IC50 [3]: 0.14 µM
AUC at 8 h [4]: 61 ng·h/mL
IC50 (Cytochrome P450 2C9): 0.5 µM
half-life at 1 µM [5]: 54 min
IC50 (Cytochrome P450 1A2): 0.05 µM
Cmax [6]: 11 ng/mL
IC50 (Cytochrome P450 2C19): 0.21 µM
IC50 (Cytochrome P450 3A4): 10 µM
half-life at 1 µM [7]: 5 min
IC50 (Cytochrome P450 2D6): > 1 µM
solubility [8]: 0.7 µg/mL (≈ 2.68 µM)
Structure (SMILES): O=C1Nc2ccccc2/C1=C/c1ccc2cn[nH]c2c1
GI50 (MCF7): 5300 nM
GI50 (MDA-MB-468): 4600 nM

Cmax [10]: 3700 ng/mL
IC50 (Cytochrome P450 2C9): 0.5 µM
IC50 (Cytochrome P450 1A2): > 10 µM
AUC [11]: 7940 ng·h/mL
IC50 (Cytochrome P450 2C19): 1 µM
IC50 (Cytochrome P450 3A4): > 1 µM
IC50 (Cytochrome P450 2D6): > 10 µM
Structure (SMILES): O=C1Nc2ccc(F)cc2[C@]12C[C@H]2c1ccc2c(/C=C/c3ccc(CN4CCOCC4)cc3)n[nH]c2c1
GI50 [9]: 10 µM
GI50 (MCF7): 900 nM
GI50 (MDA-MB-468): 20 nM
GI50 (MDA-MB-231): 0.72 µM

IC50 [2]: 2 µM
AUC at 8 h [4]: 450 ng·h/mL
IC50 (Cytochrome P450 2C9): 1.6 µM
half-life at 1 µM [5]: 16 min
IC50 (Cytochrome P450 1A2): > 10 µM
Cmax [6]: 200 ng/mL
IC50 (Cytochrome P450 2C19): 1.6 µM
IC50 (Cytochrome P450 3A4): 2.1 µM
half-life at 1 µM [7]: 9 min
IC50 (Cytochrome P450 2D6): > 10 µM
solubility [8]: 0.19 µg/mL (≈ 0.375 µM)
Structure (SMILES): COc1ccc2c(c1)[C@]1(C[C@H]1c1ccc3c(/C=C/c4ccc(N5CCN(C)CC5)nc4)n[nH]c3c1)C(=O)N2 (relative stereo)
GI50 [9]: 13.4 µM
GI50 (MCF7): 10 nM
GI50 (MDA-MB-468): 6 nM
GI50 (MDA-MB-231): 0.01 µM

IC50 [2]: 2.1 µM
IC50 [3]: 0.059 µM
Structure (SMILES): Cc1ccc(/C=C/c2n[nH]c3cc([C@@H]4C[C@@]45C(=O)Nc4ccccc45)ccc23)c(C)n1 (relative stereo)
GI50 [9]: 50 µM
GI50 (MCF7): 6800 nM
GI50 (MDA-MB-468): 70 nM
GI50 (MDA-MB-231): > 50 µM

Cmax [10]: 290 ng/mL
IC50 (Cytochrome P450 2C9): 1.4 µM
AUC [11]: 740 ng·h/mL
IC50 (Cytochrome P450 2C19): 0.6 µM
Structure (SMILES): COc1ccc2c(c1)[C@]1(C[C@H]1c1ccc3c(/C=C/c4ccc(CN5CCCCC5)nc4)n[nH]c3c1)C(=O)N2 (relative stereo)
GI50 [9]: 9.2 µM
GI50 (MCF7): 0.01 nM
GI50 (MDA-MB-468): 0.02 nM
GI50 (MDA-MB-231): 3.9 µM

IC50 [2]: 4.9 µM
IC50 [3]: 0.032 µM
Structure (SMILES): CN(C)Cc1ccc(/C=C/c2n[nH]c3cc([C@@H]4C[C@@]45C(=O)Nc4ccc(OC(F)F)cc45)ccc23)cc1 (relative stereo)
GI50 [9]: 1.6 µM
GI50 (MCF7): 25 nM
GI50 (MDA-MB-468): 5 nM
GI50 (MDA-MB-231): 4.8 µM
